According to ChEMBL document CHEMBL1221226 (Nat Chem Biol, 2009):
Residues, ends and D or L forms follow the SMILES beside them. *: point of attachment. X1 = CC(CN[C@@H](Cc1cnc[nH]1)C(=O)O)C(=O)*

Assays:
Glucagon receptor = Glucagon receptor (Homo sapiens, UniProt P47871); assay: Agonist activity at GCGR expressed in HEK293 cells assessed as stimulation of cAMP production by luciferase reporter gene assay; type: functional, cell-based
[1] = target: Glucagon-like peptide 1 receptor (Homo sapiens, UniProt P43220); assay: Agonist activity at GLP1R expressed in HEK293 cells assessed as stimulation of cAMP production by luciferase reporter gene assay; type: functional, cell-based
Chain of Glucagon-like peptide 1 receptor (P43220 whole entry): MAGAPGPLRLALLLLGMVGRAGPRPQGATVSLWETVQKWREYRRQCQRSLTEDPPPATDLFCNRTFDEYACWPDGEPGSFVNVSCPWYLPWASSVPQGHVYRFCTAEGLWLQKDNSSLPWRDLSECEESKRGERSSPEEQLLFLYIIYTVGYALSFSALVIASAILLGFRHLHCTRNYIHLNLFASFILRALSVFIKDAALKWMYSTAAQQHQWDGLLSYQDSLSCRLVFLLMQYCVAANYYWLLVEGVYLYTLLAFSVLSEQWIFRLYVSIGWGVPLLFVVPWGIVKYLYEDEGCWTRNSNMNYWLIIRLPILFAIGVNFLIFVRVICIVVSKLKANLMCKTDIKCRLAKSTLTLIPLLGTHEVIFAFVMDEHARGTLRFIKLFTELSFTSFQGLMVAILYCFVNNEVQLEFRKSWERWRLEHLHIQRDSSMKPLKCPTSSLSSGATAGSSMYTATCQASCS

Chain of Glucagon receptor (P47871 whole entry): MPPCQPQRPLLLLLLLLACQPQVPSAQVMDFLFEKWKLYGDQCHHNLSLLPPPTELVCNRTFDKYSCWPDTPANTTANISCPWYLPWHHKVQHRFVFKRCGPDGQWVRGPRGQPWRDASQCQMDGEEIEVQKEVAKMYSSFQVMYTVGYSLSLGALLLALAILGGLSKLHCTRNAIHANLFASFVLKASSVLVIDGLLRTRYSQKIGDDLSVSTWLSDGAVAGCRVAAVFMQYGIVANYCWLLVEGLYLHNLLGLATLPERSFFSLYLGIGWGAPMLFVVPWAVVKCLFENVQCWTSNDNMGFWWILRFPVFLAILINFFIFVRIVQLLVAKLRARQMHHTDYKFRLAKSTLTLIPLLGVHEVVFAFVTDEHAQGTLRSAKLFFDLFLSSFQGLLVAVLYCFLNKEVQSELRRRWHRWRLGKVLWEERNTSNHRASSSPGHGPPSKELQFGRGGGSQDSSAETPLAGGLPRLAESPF

Structure (SMILES) | EC50 (Glucagon receptor) [nM] | EC50 [1] [nM] | EC50 (Glucagon receptor; hek293) [nM] | EC50 ([1]; hek293) [nM]
CC[C@H](C)[C@H](NC(=O)[C@H](Cc1ccccc1)NC(=O)[C@H](CCC(=O)O)NC(=O)[C@H](CCCCN)NC(=O)[C@H](C)NC(=O)[C@H](C)NC(=O)[C@H](CCC(N)=O)NC(=O)[C@H](CCC(=O)O)NC(=O)[C@H](CC(=O)O)NC(=O)[C@H](CC(C)C)NC(=O)[C@H](Cc1ccc(O)cc1)NC(=O)[C@H](CCCCN)NC(=O)[C@H](CO)NC(=O)[C@H](Cc1ccc(O)cc1)NC(=O)[C@H](CC(=O)O)NC(=O)[C@H](CO)NC(=O)[C@@H](NC(=O)[C@H](Cc1ccccc1)NC(=O)[C@@H](NC(=O)CNC(=O)[C@H](CCC(N)=O)NC(=O)C(C)CN[C@@H](Cc1cnc[nH]1)C(=O)O)[C@@H](C)O)[C@@H](C)O)C(=O)N[C@@H](C)C(=O)N[C@@H](Cc1c[nH]c2ccccc12)C(=O)N[C@@H](CC(C)C)C(=O)N[C@@H](CCSC)C(=O)N[C@@H](CC(N)=O)C(=O)N[C@H](C(=O)O)[C@@H](C)O (stereo not given in full) (X1-QGTFTSDYSKYLDEQAAKEFIAWLMNT-OH) | 0.59 | 0.014 | – | –
CSCC[C@H](NC(=O)[C@H](CC(C)C)NC(=O)[C@H](Cc1c[nH]c2ccccc12)NC(=O)[C@H](CCC(N)=O)NC(=O)[C@@H](NC(=O)[C@H](Cc1ccccc1)NC(=O)[C@H](CC(=O)O)NC(=O)[C@H](CCC(N)=O)NC(=O)[C@H](C)NC(=O)[C@H](CCCNC(=N)N)NC(=O)[C@H](CCCNC(=N)N)NC(=O)[C@@H](NC(=O)[C@H](CC(=O)O)NC(=O)[C@H](CC(C)C)NC(=O)[C@H](Cc1ccc(O)cc1)NC(=O)[C@H](CCCCN)NC(=O)[C@H](CO)NC(=O)[C@H](Cc1ccc(O)cc1)NC(=O)[C@H](CC(=O)O)NC(=O)[C@H](CO)NC(=O)[C@@H](NC(=O)[C@H](Cc1ccccc1)NC(=O)[C@@H](NC(=O)CNC(=O)[C@H](CCC(N)=O)NC(=O)[C@H](CO)N[C@@H](Cc1cnc[nH]1)C(=O)O)[C@@H](C)O)[C@@H](C)O)[C@@H](C)O)C(C)C)C(=O)N[C@@H](CC(N)=O)C(=O)N[C@H](C(N)=O)[C@@H](C)O | 0.13 | 0.58 | – | –
CSCC[C@H](NC(=O)[C@H](CC(C)C)NC(=O)[C@H](Cc1c[nH]c2ccccc12)NC(=O)[C@@H]1CCC(=O)NCCCC[C@H](NC(=O)[C@H](C)NC(=O)[C@H](CCCN=C(N)N)NC(=O)[C@H](CCCN=C(N)N)NC(=O)[C@H](CO)NC(=O)[C@H](CC(=O)O)NC(=O)[C@H](CC(C)C)NC(=O)[C@H](Cc2ccc(O)cc2)NC(=O)[C@H](CCCCN)NC(=O)[C@H](CO)NC(=O)[C@H](Cc2ccc(O)cc2)NC(=O)[C@H](CC(=O)O)NC(=O)[C@H](CO)NC(=O)[C@@H](NC(=O)[C@H](Cc2ccccc2)NC(=O)[C@@H](NC(=O)CNC(=O)[C@H](CCC(N)=O)NC(=O)[C@H](CO)N[C@@H](Cc2cnc[nH]2)C(=O)O)[C@@H](C)O)[C@@H](C)O)C(=O)N[C@@H](CC(=O)O)C(=O)N[C@@H](Cc2ccccc2)C(=O)N[C@@H](C(C)C)C(=O)N1)C(=O)N[C@@H](CC(N)=O)C(=O)N[C@H](C(=O)O)[C@@H](C)O | 0.078 | 0.24 | – | –
CSCC[C@H](NC(=O)[C@H](CC(C)C)NC(=O)[C@H](Cc1c[nH]c2ccccc12)NC(=O)[C@H](CCC(N)=O)NC(=O)[C@@H](NC(=O)[C@H](Cc1ccccc1)NC(=O)[C@H](CC(=O)O)NC(=O)[C@H](CCC(N)=O)NC(=O)[C@H](C)NC(=O)[C@H](CCCNC(=N)N)NC(=O)[C@H](CCCNC(=N)N)NC(=O)[C@H](CCC(=O)O)NC(=O)[C@H](CCC(=O)O)NC(=O)[C@H](CC(C)C)NC(=O)[C@H](Cc1ccc(O)cc1)NC(=O)[C@H](CO)NC(=O)[C@H](CO)NC(=O)[C@@H](NC(=O)[C@H](CC(=O)O)NC(=O)[C@H](CO)NC(=O)[C@@H](NC(=O)[C@H](Cc1ccccc1)NC(=O)[C@@H](NC(=O)CNC(=O)[C@H](CCC(=O)O)NC(=O)[C@H](C)NC(=O)[C@@H](N)Cc1cnc[nH]1)[C@@H](C)O)[C@@H](C)O)C(C)C)C(C)C)C(=O)N[C@@H](CC(N)=O)C(=O)N[C@H](C(=O)O)[C@@H](C)O (H-HAEGTFTSDVSSYLEERRAQDFVQWLMNT-OH) | – | – | 50 | 0.18
CSCC[C@H](NC(=O)[C@H](CC(C)C)NC(=O)[C@H](Cc1c[nH]c2ccccc12)NC(=O)[C@H](CCC(N)=O)NC(=O)[C@@H](NC(=O)[C@H](Cc1ccccc1)NC(=O)[C@H](CC(=O)O)NC(=O)[C@H](CCC(N)=O)NC(=O)[C@H](C)NC(=O)[C@H](CCCN=C(N)N)NC(=O)[C@H](CCCN=C(N)N)NC(=O)CNC(=O)[C@H](CC(=O)O)NC(=O)[C@H](CC(C)C)NC(=O)[C@H](Cc1ccc(O)cc1)NC(=O)[C@H](CCCCN)NC(=O)[C@H](CO)NC(=O)[C@H](Cc1ccc(O)cc1)NC(=O)[C@H](CC(=O)O)NC(=O)[C@H](CO)NC(=O)[C@@H](NC(=O)[C@H](Cc1ccccc1)NC(=O)[C@@H](NC(=O)CNC(=O)[C@H](CCC(N)=O)NC(=O)[C@H](CO)N[C@@H](Cc1cnc[nH]1)C(=O)O)[C@@H](C)O)[C@@H](C)O)C(C)C)C(=O)N[C@@H](CC(N)=O)C(=O)N[C@H](C(N)=O)[C@@H](C)O | 0.13 | 0.58 | – | –
CSCC[C@H](NC(=O)[C@H](CC(C)C)NC(=O)[C@H](Cc1c[nH]c2ccccc12)NC(=O)[C@H](CCC(N)=O)NC(=O)[C@@H](NC(=O)[C@H](Cc1ccccc1)NC(=O)[C@H](CC(=O)O)NC(=O)[C@H](CCC(N)=O)NC(=O)[C@H](C)NC(=O)[C@H](CCCNC(=N)N)NC(=O)[C@H](CCCNC(=N)N)NC(=O)[C@H](CCS(=O)(=O)O)NC(=O)[C@H](CC(=O)O)NC(=O)[C@H](CC(C)C)NC(=O)[C@H](Cc1ccc(O)cc1)NC(=O)[C@H](CCCCN)NC(=O)[C@H](CO)NC(=O)[C@H](Cc1ccc(O)cc1)NC(=O)[C@H](CC(=O)O)NC(=O)[C@H](CO)NC(=O)[C@@H](NC(=O)[C@H](Cc1ccccc1)NC(=O)[C@@H](NC(=O)CNC(=O)[C@H](CCC(N)=O)NC(=O)[C@H](CO)N[C@@H](Cc1cnc[nH]1)C(=O)O)[C@@H](C)O)[C@@H](C)O)C(C)C)C(=O)N[C@@H](CC(N)=O)C(=O)N[C@H](C(N)=O)[C@@H](C)O | 0.1 | 0.12 | – | –
CSCC[C@H](NC(=O)[C@H](CC(C)C)NC(=O)[C@H](Cc1c[nH]c2ccccc12)NC(=O)[C@H](CCC(N)=O)NC(=O)[C@@H](NC(=O)[C@H](Cc1ccccc1)NC(=O)[C@H](CC(=O)O)NC(=O)[C@H](CCC(N)=O)NC(=O)[C@H](C)NC(=O)[C@H](CCCN=C(N)N)NC(=O)[C@H](CCCN=C(N)N)NC(=O)[C@H](CCC(=O)O)NC(=O)[C@H](CC(=O)O)NC(=O)[C@H](CC(C)C)NC(=O)[C@H](Cc1ccc(O)cc1)NC(=O)[C@H](CCCCN)NC(=O)[C@H](CO)NC(=O)[C@H](Cc1ccc(O)cc1)NC(=O)[C@H](CC(=O)O)NC(=O)[C@H](CO)NC(=O)[C@@H](NC(=O)[C@H](Cc1ccccc1)NC(=O)[C@@H](NC(=O)CNC(=O)[C@H](CCC(N)=O)NC(=O)[C@H](CO)N[C@@H](Cc1cnc[nH]1)C(=O)O)[C@@H](C)O)[C@@H](C)O)C(C)C)C(=O)N[C@@H](CC(N)=O)C(=O)N[C@H](C(N)=O)[C@@H](C)O | 0.049 | 0.17 | – | –
CSCC[C@@H]1NC(=O)[C@H](CC(C)C)NC(=O)[C@H](Cc2c[nH]c3ccccc23)NC(=O)[C@@H](NC(=O)[C@@H](NC(=O)[C@H](Cc2ccccc2)NC(=O)[C@H](CC(=O)O)NC(=O)[C@H](CCC(N)=O)NC(=O)[C@H](C)NC(=O)[C@H](CCCN=C(N)N)NC(=O)[C@H](CCCN=C(N)N)NC(=O)[C@H](CO)NC(=O)[C@H](CC(=O)O)NC(=O)[C@H](CC(C)C)NC(=O)[C@H](Cc2ccc(O)cc2)NC(=O)[C@H](CCCCN)NC(=O)[C@H](CO)NC(=O)[C@H](Cc2ccc(O)cc2)NC(=O)[C@H](CC(=O)O)NC(=O)[C@H](CO)NC(=O)[C@@H](NC(=O)[C@H](Cc2ccccc2)NC(=O)[C@@H](NC(=O)CNC(=O)[C@H](CCC(N)=O)NC(=O)[C@H](CO)N[C@@H](Cc2cnc[nH]2)C(=O)O)[C@@H](C)O)[C@@H](C)O)C(C)C)CCC(=O)NCCCC[C@@H](C(=O)N[C@H](C(=O)O)[C@@H](C)O)NC1=O | 0.076 | 0.18 | – | –
CSCC[C@H](NC(=O)[C@H](CC(C)C)NC(=O)[C@H](Cc1c[nH]c2ccccc12)NC(=O)[C@H](CCC(N)=O)NC(=O)[C@@H](NC(=O)[C@H](Cc1ccccc1)NC(=O)[C@H](CCC(=O)O)NC(=O)[C@H](CCCCN)NC(=O)[C@H](C)NC(=O)[C@H](CCCNC(=N)N)NC(=O)[C@H](CCCNC(=N)N)NC(=O)[C@H](CCC(=O)O)NC(=O)[C@H](CC(=O)O)NC(=O)[C@H](CC(C)C)NC(=O)[C@H](Cc1ccc(O)cc1)NC(=O)[C@H](CCCCN)NC(=O)[C@H](CO)NC(=O)[C@H](Cc1ccc(O)cc1)NC(=O)[C@H](CC(=O)O)NC(=O)[C@H](CO)NC(=O)[C@@H](NC(=O)[C@H](Cc1ccccc1)NC(=O)[C@@H](NC(=O)CNC(=O)[C@H](CCC(N)=O)NC(=O)[C@H](CO)N[C@@H](Cc1cnc[nH]1)C(=O)O)[C@@H](C)O)[C@@H](C)O)C(C)C)C(=O)N[C@@H](CC(N)=O)C(=O)N[C@H](C(N)=O)[C@@H](C)O | 0.068 | 0.075 | – | –
CSCC[C@H](NC(=O)[C@H](CC(C)C)NC(=O)[C@H](Cc1c[nH]c2ccccc12)NC(=O)[C@H](CCC(N)=O)NC(=O)[C@@H](NC(=O)[C@H](Cc1ccccc1)NC(=O)[C@H](CC(=O)O)NC(=O)[C@H](CCC(N)=O)NC(=O)[C@H](C)NC(=O)[C@H](CCCNC(=N)N)NC(=O)[C@H](CCCNC(=N)N)NC(=O)[C@H](CCC(=O)O)NC(=O)[C@H](CC(=O)O)NC(=O)[C@H](CC(C)C)NC(=O)[C@H](Cc1ccc(O)cc1)NC(=O)[C@H](CCCCN)NC(=O)[C@H](CO)NC(=O)[C@H](Cc1ccc(O)cc1)NC(=O)[C@H](CC(=O)O)NC(=O)[C@H](CO)NC(=O)[C@@H](NC(=O)[C@H](Cc1ccccc1)NC(=O)[C@@H](NC(=O)CNC(=O)[C@H](CCC(=O)O)NC(=O)[C@H](CO)N[C@@H](Cc1cnc[nH]1)C(=O)O)[C@@H](C)O)[C@@H](C)O)C(C)C)C(=O)N[C@@H](CC(N)=O)C(=O)N[C@H](C(N)=O)[C@@H](C)O | 3.7 | 0.11 | – | –
